In US20260007629A1, “DIETARY BUTYRATE AND ITS USES” (SOCIETE DES PRODUITS NESTLE S.A., priority 2019, published 2026):

Columns and labels:
[1] = target: T1, porcine pancreatic lipase (PPL) (Sus scrofa, UniProt P00591); conditions: pig, 3 h, pH 11.5
T1 sequence (P00591 1-450): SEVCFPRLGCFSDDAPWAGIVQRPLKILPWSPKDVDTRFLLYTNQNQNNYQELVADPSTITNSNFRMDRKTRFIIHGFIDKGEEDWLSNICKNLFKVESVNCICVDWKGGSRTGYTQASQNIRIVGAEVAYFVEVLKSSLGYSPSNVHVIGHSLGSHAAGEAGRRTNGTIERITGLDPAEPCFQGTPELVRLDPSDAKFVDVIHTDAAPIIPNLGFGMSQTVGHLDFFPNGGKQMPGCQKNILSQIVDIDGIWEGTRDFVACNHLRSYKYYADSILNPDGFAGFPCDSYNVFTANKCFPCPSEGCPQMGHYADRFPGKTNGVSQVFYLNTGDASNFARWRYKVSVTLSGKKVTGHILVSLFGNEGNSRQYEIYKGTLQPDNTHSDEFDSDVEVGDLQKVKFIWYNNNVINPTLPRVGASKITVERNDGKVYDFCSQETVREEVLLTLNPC
T1 sequence (P02703 23-112 partner): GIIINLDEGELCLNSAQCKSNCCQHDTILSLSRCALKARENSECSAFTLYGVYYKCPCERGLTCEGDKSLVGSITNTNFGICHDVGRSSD
Text: Because many fatty acids are only partially ionised at pH 6.8, direct titration gives only partial picture of the extent of lipid digestion, instead back titration to pH 11.5 or GC-FAME analysis is required to estimate the full extent of digestion.

[2] = test system: rabbit gastric lipase (RGL) followed by porcine pancreatic lipase (PPL); experiment: In vitro sequential digestion, SGF followed by SIF, pH-stat; assay type: in vitro ADME
[3] = target: T1, porcine pancreatic lipase (PPL); experiment: In vitro digestion, simulated intestinal fluid (SIF) model, pH-stat; assay type: in vitro ADME; design: by porcine pancreatic lipase (from pancreatin); purchased SIGMA-ALDRICH P7585; host or cells: porcine pancreas extract (pancreatin); conditions: SIF alone; emulsion with 200 mg fat, pH 6.8, 37° C.

extent of digestion [1]: 101.5±0.9% | initial lipolysis rate in SIF compartment ([2]; SGF-SIF digestion (90 min SGF pre-exposure, pH 5.5)): 44.1 ± 8.8 µmol/min | hydrolysis in the stomach / extent of gastric lipolysis ([2]; in words, gastric compartment of the model): extensive hydrolysis in the stomach | lipolysis by gastric lipase ([2]; indicated by decreased total fatty acid release in SIF after RGL pre-exposure): ~60% | initial (maximal) rate of lipolysis [3]: 223 ± 59 µmol/min
SMILES: CCCC(=O)OCC(COC(=O)CCC)OC(=O)CCC [tributyrin]
